Our source for the Ki values is BindingDB's records for doi:10.1124/mol.59.3.434 (Smithkline Beecham Pharmaceuticals, 2001).

Values joined by “and” are separate entries in the source; they are usually repeats but may differ in a detail not shown here. Identical values can stand only once.

The experiment has as its target Histamine H4 receptor (Homo sapiens, UniProt Q9H3N8).

Histamine H4 receptor, sequence (Q9H3N8 whole entry): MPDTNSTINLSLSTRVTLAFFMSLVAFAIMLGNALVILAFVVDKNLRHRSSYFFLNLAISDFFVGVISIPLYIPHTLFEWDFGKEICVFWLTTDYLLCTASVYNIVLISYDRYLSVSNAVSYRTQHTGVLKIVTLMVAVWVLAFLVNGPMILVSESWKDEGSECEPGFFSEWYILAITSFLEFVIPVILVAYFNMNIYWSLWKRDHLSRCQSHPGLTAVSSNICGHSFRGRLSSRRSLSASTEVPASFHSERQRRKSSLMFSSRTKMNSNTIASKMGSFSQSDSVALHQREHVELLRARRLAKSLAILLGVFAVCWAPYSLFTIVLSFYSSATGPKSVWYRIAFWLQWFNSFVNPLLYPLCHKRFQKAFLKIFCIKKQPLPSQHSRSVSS

With `C[C@@H](N)Cc1c[nH]cn1`, the Ki was 0.348 µM and 0.232 µM.
